Earlier results as cited in patent US11666537B2, “Solid oral dosage form of irinotecan for the treatment of cancer” (Oncoral Pharma ApS, priority 2014, dated 2023).

Test system: tumor cells
Settings: human and rodent tumor cell lines

For `CCc1c2c(nc3ccc(O)cc13)-c1cc3c(c(=O)n1C2)COC(=O)[C@]3(O)CC` [SN-38], the “times more cytotoxic than irinotecan” value is listed as 100-1000 times.
